{"source": "paper PMC3931418", "about": "(Nature, 2014)", "key": {"δ-OR N131A (HEK293)": {"biological_target": "δ-OR N131A (HEK293) (Homo sapiens, UniProt P41143, N131A)", "sequence (P41143 whole entry N131A)": "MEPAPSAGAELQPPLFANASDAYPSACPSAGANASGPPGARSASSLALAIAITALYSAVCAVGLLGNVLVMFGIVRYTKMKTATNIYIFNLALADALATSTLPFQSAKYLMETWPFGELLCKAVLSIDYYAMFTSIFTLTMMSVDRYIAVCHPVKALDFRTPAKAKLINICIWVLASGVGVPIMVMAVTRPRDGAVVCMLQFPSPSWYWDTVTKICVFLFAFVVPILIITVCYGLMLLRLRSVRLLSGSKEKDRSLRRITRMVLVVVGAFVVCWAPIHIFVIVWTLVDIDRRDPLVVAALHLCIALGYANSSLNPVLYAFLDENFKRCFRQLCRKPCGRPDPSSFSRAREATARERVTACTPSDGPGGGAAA", "type": "binding"}, "δ-OR D95A (HEK293)": {"biological_target": "δ-OR D95A (HEK293) (Homo sapiens, UniProt P41143, D95A)", "sequence (P41143 whole entry D95A)": "as the sequence (P41143 whole entry N131A) above, with D95A, A131N counted along it"}, "δ-OR D95N (HEK293)": {"biological_target": "δ-OR D95N (HEK293) (Homo sapiens, UniProt P41143, D95N)", "sequence (P41143 whole entry D95N)": "as the sequence (P41143 whole entry N131A) above, with D95N, A131N counted along it"}, "δ-OR WT (HEK293)": {"biological_target": "δ-OR WT (HEK293) (Homo sapiens, UniProt P41143)", "sequence (P41143 whole entry)": "as the sequence (P41143 whole entry N131A) above, with A131N counted along it", "type": "binding"}, "[1]": {"tested_on": "δ-OR sodium-anchored residue mutants", "test": "cAMP assay", "type": "cell-based, human"}, "WT δ-OR": {"biological_target": "WT δ-OR (Homo sapiens, UniProt P41143)", "sequence (P41143 whole entry)": "as the sequence (P41143 whole entry N131A) above, with A131N counted along it", "test": "δ-OR β-arrestin recruitment assay"}, "δ-OR [2]": {"biological_target": "δ-OR (Homo sapiens, UniProt P41143)", "sequence (P41143 whole entry)": "as the sequence (P41143 whole entry N131A) above, with A131N counted along it", "test": "cAMP assay", "type": "cell-based", "details": "receptors transfected with 15 µg DNA"}, "δ-OR [3]": {"tested_on": "δ-OR", "details": "cited from earlier work"}, "[4]": {"tested_on": "δ-OR sodium-anchored residue mutants", "test": "δ-OR β-arrestin recruitment assay", "details": "sodium-anchored residue mutants compared to WT"}, "[5]": {"details": "cooperativity of sodium with DADLE"}}, "data": [{"compound": "[Na+]", "note": "[sodium]", "values": [{"measurement": "Hill Coefficient", "setting": "δ-OR N131A (HEK293)", "result": "NAE"}, {"measurement": "Na+ KB", "setting": "δ-OR N131A (HEK293)", "result": "NAE"}, {"measurement": "Na+ pKB ± SEM", "setting": "δ-OR N131A (HEK293)", "result": "NAE"}, {"measurement": "pα ± SEM", "setting": "δ-OR N131A (HEK293)", "result": "NAE"}, {"measurement": "α", "setting": "δ-OR N131A (HEK293)", "result": "NAE"}, {"measurement": "Hill Coefficient", "setting": "δ-OR D95A (HEK293)", "result": "NAE"}, {"measurement": "Na+ KB", "setting": "δ-OR D95A (HEK293)", "result": "NAE"}, {"measurement": "Na+ pKB ± SEM", "setting": "δ-OR D95A (HEK293)", "result": "NAE"}, {"measurement": "pα ± SEM", "setting": "δ-OR D95A (HEK293)", "result": "NAE"}, {"measurement": "α", "setting": "δ-OR D95A (HEK293)", "result": "NAE"}, {"measurement": "Hill Coefficient", "setting": "δ-OR D95N (HEK293)", "result": "NAE"}, {"measurement": "Na+ KB", "setting": "δ-OR D95N (HEK293)", "result": "NAE"}, {"measurement": "Na+ pKB ± SEM", "setting": "δ-OR D95N (HEK293)", "result": "NAE"}, {"measurement": "pα ± SEM", "setting": "δ-OR D95N (HEK293)", "result": "NAE"}, {"measurement": "α", "setting": "δ-OR D95N (HEK293)", "result": "NAE"}, {"measurement": "Hill Coefficient", "setting": "δ-OR WT (HEK293)", "result": "0.56 ± 0.16"}, {"measurement": "Na+ pKB ± SEM", "setting": "δ-OR WT (HEK293); allosteric model, orthosteric ligand DADLE", "result": "1.88 ± 0.10"}, {"measurement": "pα ± SEM", "setting": "δ-OR WT (HEK293); [5]", "result": "1.93 ± 0.34"}, {"measurement": "α", "setting": "δ-OR WT (HEK293); [5]", "result": 0.012}, {"measurement": "Kb", "setting": "δ-OR WT (HEK293); read-out: Na+ KB, allosteric model, orthosteric ligand DADLE", "result": 13.3, "unit": "mM"}]}, {"compound": "DADLE", "values": [{"measurement": "G protein agonist efficacy", "setting": "[1]; Asp95Ala, Asn310Ala and Asn314Ala mutants", "result": "low to moderate reduction"}]}, {"compound": "O=C1/C(=C/c2ccccc2)C[C@@]2(O)[C@H]3Cc4ccc(O)c5c4[C@@]2(CCN3CC2CC2)[C@H]1O5", "note": "[BNTX]", "values": [{"measurement": "agonist activity at the β-arrestin pathway", "setting": "WT δ-OR", "result": "no apparent agonist activity"}]}, {"compound": "Oc1ccc2c3c1O[C@H]1c4oc5ccccc5c4C[C@@]4(O)[C@@H](C2)N(CC2CC2)CC[C@]314", "note": "[naltriben]", "values": [{"measurement": "agonist activity at the β-arrestin pathway", "setting": "WT δ-OR", "result": "no apparent agonist activity"}]}, {"compound": "Oc1ccc2c3c1O[C@H]1c4[nH]c5ccccc5c4C[C@@]4(O)[C@@H](C2)N(CC2CC2)CC[C@]314", "note": "[naltrindole]", "values": [{"measurement": "agonist activity at the β-arrestin pathway", "setting": "WT δ-OR", "result": "no apparent agonist activity"}, {"measurement": "activity at Gαi signaling", "setting": "δ-OR [2]", "result": "weak partial agonist activity"}]}, {"compound": "C=CCN1C[C@H](C)N([C@H](c2ccc(C(=O)N(CC)CC)cc2)c2cccc(O)c2)C[C@H]1C", "values": [{"measurement": "effect of sodium ions on binding to the receptor", "setting": "δ-OR [3]", "result": "minimally affected"}, {"measurement": "G-protein signaling", "setting": "[1]; sodium-anchored residue mutants compared to WT", "result": "low to moderate reduction"}, {"measurement": "β-arrestin signaling", "setting": "[4]", "result": "low to moderate reduction"}]}]}
